{"source": "patent US11083723B2", "about": "“Use of roluperidone to treat negative symptoms and disorders, increase neuroplasticity, and promote neuroprotection” (Minerva Neurosciences, Inc., priority 2018, dated 2021)", "key": {"[1]": {"test_system": "GDNF release by primary rat astrocytes", "assay": "GDNF release by primary rat astrocytes, in situ ELISA", "format": "cell-based", "conditions": "5 days incubation", "procedure": "Experimental Protocol-In Situ ELISA on Primary Astrocytes Rat Primary Culture of Astrocytes Rat mixed glial cells were cultured as described by McCarthy et al. Primary rat glial cells were prepared from the cortical of newborn Wistar rats (1 day). Briefly, meninges and blood vessels of the mice cortex were removed and placed in ice-cold medium of Leibovitz (L15; PanBiotech, ref P04-27055, batch 4511117) containing 2% Penicillin-Streptomycin (PS; PanBiotech, ref P06-07100, batch 2110917) and 1% of bovine serum albumin (BSA; […] Cells were then submitted to a supplementary incubation of 15 min. at 37° C. in presence of deoxyribonuclease I (0.1 mg/mL Panbiotech, ref: P60-37780100, batch: H140508). Cells were then pelleted (5 min. at 1200 rpm) and trypsinization was stopped by adding DMEM (PanBiotech, Ref P04-03600, Batch 8420517) supplemented with 10% FCS (Fischer, Ref 10270106, batch 41A0940K), 1 mM of Na/pyruvate (PanBiotech, ref: P04-43100, batch 3470914). Cells suspension was mechanically dissociated and filtered through […] diameter nylon meshes (BD Falcon, Ref: 352340). The cells were collected by centrifugation at 1200 rpm/min for 10 min, resuspended in culture medium and then plated in culture flasks (Dutscher, ref: 690175). Cells were seeded at a density of 1.25×10^5 cells/cm^2 and culture in 5% CO2 at 37° C. Medium was changed 3 times per week. At confluency, astrocytes were plated in 96-well Nunc MaxiSorp surface polystyrene flat-bottom immunoplate precoated with poly-D-lysine during 30 min (Sigma, Ref: […], batch: SLBS8705) and an anti-GDNF monoclonal antibody overnight at 4° C. at a density of 30,000 cells/well. […] At the end of drug treatment, cells were carefully washed with TBST (20 mM Tris-HCl (pH 7.6), 150 mM NaCl, and 0.05% (vol/vol) Tween 20). The plate was then incubated with the polyclonal anti-human GDNF antibody overnight. The amount of specifically bound polyclonal antibody, which when exposed to chromogenic substrate (TMB reagent; Promega), changes color in proportion to the amount of GDNF present in the sample. The color intensity was quantified by measuring the absorbance at 450 nm. GDNF standards, ranging in concentration from 0 to 500 pg/mL were added in parallel wells in the same medium than hippocampal neurons."}, "[2]": {"test_system": "BDNF expression by astrocytes", "assay": "BDNF expression by astrocytes, qPCR", "format": "cell-based, rat", "conditions": "for BDNF expression astrocytes, % increase of control conditions: 5 days incubation; for BDNF expression by astrocytes, fold change (Fc) compared to control condition: 5 days", "procedure": "For analysis of BDNF expression by real-time quantitative polymerase chain reaction (qPCR), astrocytes were seeded in 24 well-plates pre-coated with poly-D-lysine. After 1 day of culture, fresh serum free medium containing compounds was added during 5 days at 37° C. At the end of the incubation time total RNA content were extracted and reverse transcription was performed. Expression levels were calculated using the ΔCt method where the expression level of the mRNA of interest is given by 2-ΔCT with ΔCT=CT target mRNA−CT reference mRNA (Gapdh), in the same sample.\nRat Primary Culture of Astrocytes—rat mixed glial cells were cultured as described by McCarthy et al., 1980. Primary rat glial cells were prepared from the cortical of newborn Wistar rats (1 day). Briefly, meninges and blood vessels of the mice cortex were removed and placed in ice-cold medium of Leibovitz (L15; PanBiotech, ref P04-27055, batch 4511117) containing 2% of Penicillin-Streptomycin (PS; PanBiotech, ref P06-07100, batch 2110917) and 1% of bovine serum albumin (BSA; PanBiotech, ref P06-1391100, batch H171006). Tissues were dissociated with 0.25% trypsin-EDTA (PanBiotech, ref P10-023100, batch 8970318) at 37° C. for 10 min. Cells were then submitted to a supplementary incubation of 15 min at 37° C. in presence of deoxyribonuclease I (0.1 mg/ml Panbiotech, ref: P60-37780100, batch: H170706). Cells were then pelleted (5 min at 1200 rpm) and trypsinization was stopped by adding DMEM (Panbiotech, Ref P04-03600, Batch 5181217) supplemented with 10% FCS (Fischer, Ref 10270106, batch 42G2068K), 1 mM of Na/pyruvate (PanBiotech, ref: P04-43100, batch: 3470914) and 2% PS. Cells suspension was mechanically dissociated and filtered through 40 μm diameter nylon meshes (BD Falcon, Ref: 352340). The cells were collected by centrifugation at 1200 rpm/min for 10 min, re-suspended in culture medium and then plated in culture flasks (Dutscher, ref: 690175). Cells were seeded at a density of 1.25×10^5 cells/cm^2 and cultured in 5% CO2 at 37° C. Medium was changed three times per week.\nAnalysis of BDNF expression by real-time quantitative polymerase chain reaction (PCR): astrocytes were seeded in 24 well-plates pre-coated with poly-D-lysine (Sigma, ref P7886, batch: SLBQ9797V). After 1 day of culture, fresh serum free medium containing compounds was added during 5 days at 37° C. At the end of the incubation time, medium was removed and total RNA content were extracted using kit nucleo spin RNS XS (Macherey Nagel; 20 μL/well). 6 wells/condition were done. RNA concentration was determined using a Nanodrop 2000 spectrophotometer (Life Technologies ThermoFisher Scientific, Villebon sur Yvette, France).\nReverse transcription was performed on 500 ng of RNA using the high capacity RNA-to-cDNA mix (Applied Biotechnologies). qPCR was performed on 12.5 ng of cDNA using the following primers, purchased from Applied Biotechnology.\nFor qPCR reactions, the kit TaqMan™ Fast Universal PCR Master Mix (2×) was used. The following volumes were used: mix: 10 uL, enzyme: 4 uL, oligo: 1 uL each, cDNA: 5 uL (12,5 ng). For the comparisons between various compounds and concentrations, expression levels were calculated using the ΔCt method where the expression level of the mRNA of interest is given by 2-ΔCT with ΔCT=CT target mRNA−CT reference mRNA (Gapdh), in the same sample. For the cultures treated with GA or the unknown compound, relative expression levels were determined according to the ΔΔCt method where the expression level of the mRNA of interest is given by 2-ΔΔCT where ΔΔCT=ΔCt for treated cultures−ΔCt for untreated cultures."}, "sigma1 receptors": {"molecular_target": "sigma1 receptors (Homo sapiens, UniProt Q99720)", "sequence (Q99720 whole entry)": "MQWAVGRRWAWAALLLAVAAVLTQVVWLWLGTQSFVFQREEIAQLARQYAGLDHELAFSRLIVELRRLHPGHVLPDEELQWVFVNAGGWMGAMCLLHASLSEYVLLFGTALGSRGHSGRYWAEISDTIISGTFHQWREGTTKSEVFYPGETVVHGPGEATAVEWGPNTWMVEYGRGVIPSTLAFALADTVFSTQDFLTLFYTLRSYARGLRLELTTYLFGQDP", "assay": "Molecular binding profile, sigma1"}, "dopaminergic receptors": {"test_system": "dopaminergic receptors", "assay": "Receptor affinity, dopaminergic", "format": "binding"}}, "note": "pKi: −log10 of the molar value. Counter-ions that a name gives are not always drawn.", "data": [{"smiles": "O=C(CN1CCC(CN2Cc3ccccc3C2=O)CC1)c1ccc(F)cc1", "note": "[Compound (I), 1H-Isoindol-1-one, 2-[[1-[2-(4-Fluorophenyl)-2-oxoethyl]-4-piperidinyl]methyl]-2,3-dihydro-, hydrochloride, hydrate (1:1:2)]", "values": [{"measurement": "GDNF release astrocytes, % increase of control conditions", "setting": "[1]; 3 nM", "result": 11.4, "unit": "%"}, {"measurement": "GDNF release astrocytes, % increase of control conditions", "setting": "[1]; 10 nM", "result": 13.8, "unit": "%"}, {"measurement": "GDNF release astrocytes, % increase of control conditions", "setting": "[1]; 30 nM", "result": 14.2, "unit": "%"}, {"measurement": "GDNF release astrocytes, % increase of control conditions", "setting": "[1]; 100 nM", "result": 14.8, "unit": "%"}, {"measurement": "GDNF release astrocytes, % increase of control conditions", "setting": "[1]; 300 nM", "result": 20.8, "unit": "%"}, {"measurement": "GDNF release astrocytes, % increase of control conditions", "setting": "[1]; 1 μM", "result": 17.5, "unit": "%"}, {"measurement": "BDNF expression astrocytes, % increase of control conditions", "setting": "[2]; 0.3 nM", "result": 26, "unit": "%"}, {"measurement": "BDNF expression astrocytes, % increase of control conditions", "setting": "[2]; 1 nM", "result": 55, "unit": "%"}, {"measurement": "BDNF expression by astrocytes, fold change (Fc) compared to control condition", "setting": "[2]; 1 nM, p<0.05", "result": 1.55}, {"measurement": "BDNF expression astrocytes, % increase of control conditions", "setting": "[2]; 3 nM", "result": 81, "unit": "%"}, {"measurement": "BDNF expression by astrocytes, fold change (Fc) compared to control condition", "setting": "[2]; 3 nM, p<0.001", "result": 1.81}, {"measurement": "BDNF expression astrocytes, % increase of control conditions", "setting": "[2]; 10 nM", "result": 71, "unit": "%"}, {"measurement": "BDNF expression by astrocytes, fold change (Fc) compared to control condition", "setting": "[2]; 10 nM, p<0.01", "result": 1.71}, {"measurement": "BDNF expression astrocytes, % increase of control conditions", "setting": "[2]; 30 nM", "result": 31, "unit": "%"}, {"measurement": "BDNF expression astrocytes, % increase of control conditions", "setting": "[2]; 100 nM", "result": 5, "unit": "%"}, {"measurement": "pKi", "setting": "sigma1 receptors", "result": 6.60}, {"measurement": "affinity for dopaminergic receptors", "setting": "dopaminergic receptors", "result": "no affinity"}]}]}
